Article PMC5750651, “Disposition, Metabolism and Histone Deacetylase and Acetyltransferase Inhibition Activity of Tetrahydrocurcumin and Other Curcuminoids” (Pharmaceutics, 2017)
Entries after “also recorded” stand apart in the source; their conditions may differ. Read-outs that look alike come from different tables or passages of the source.

Assays:
CYP2C9 = target: T1, CYP2C9 (Homo sapiens, UniProt P11712); assay: Vivid CYP450 screening kit, CYP2C9; format: in vitro ADME; settings: 0.01-100 μM, relative to sulfaphenazole
T1 construct: purchased Life Technologies P2860
T1 sequence (P11712 whole entry): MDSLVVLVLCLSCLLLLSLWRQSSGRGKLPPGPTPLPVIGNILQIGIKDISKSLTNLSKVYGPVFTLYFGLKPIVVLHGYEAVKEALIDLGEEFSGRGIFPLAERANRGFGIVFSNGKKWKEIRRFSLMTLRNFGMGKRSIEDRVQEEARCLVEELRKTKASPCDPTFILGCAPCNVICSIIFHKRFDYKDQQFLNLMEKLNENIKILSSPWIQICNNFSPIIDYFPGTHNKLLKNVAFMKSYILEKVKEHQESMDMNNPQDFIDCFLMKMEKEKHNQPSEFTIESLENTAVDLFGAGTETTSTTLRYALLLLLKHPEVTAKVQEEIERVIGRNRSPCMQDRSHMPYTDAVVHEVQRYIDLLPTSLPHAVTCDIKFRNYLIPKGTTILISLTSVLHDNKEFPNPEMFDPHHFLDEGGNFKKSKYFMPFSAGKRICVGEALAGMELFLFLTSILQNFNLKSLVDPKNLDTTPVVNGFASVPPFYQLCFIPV

CYP1A2 = target: T2, CYP1A2 (Homo sapiens, UniProt P05177); assay: Vivid CYP450 screening kit, CYP1A2; settings: 0.01-100 μM
T2 sequence (P05177 1-516): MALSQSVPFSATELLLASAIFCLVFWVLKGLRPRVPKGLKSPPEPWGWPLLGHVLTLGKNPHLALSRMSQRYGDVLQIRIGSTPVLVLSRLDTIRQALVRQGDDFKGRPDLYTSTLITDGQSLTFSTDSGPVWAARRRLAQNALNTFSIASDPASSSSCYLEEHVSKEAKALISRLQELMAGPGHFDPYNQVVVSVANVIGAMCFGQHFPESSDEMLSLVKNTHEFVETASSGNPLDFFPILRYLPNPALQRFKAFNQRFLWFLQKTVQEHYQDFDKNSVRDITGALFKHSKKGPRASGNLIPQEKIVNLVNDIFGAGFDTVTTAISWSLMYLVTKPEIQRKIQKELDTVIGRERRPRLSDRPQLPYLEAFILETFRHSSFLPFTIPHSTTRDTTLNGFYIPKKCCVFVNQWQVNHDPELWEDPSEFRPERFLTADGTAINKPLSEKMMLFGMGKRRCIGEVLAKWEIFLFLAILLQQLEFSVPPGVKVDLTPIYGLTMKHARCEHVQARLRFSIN
Procedure: (§1) CYP2C9, CYP3A4, CYP1A2 and CYP2D6 assays were performed to assess metabolism and inhibition of human P450 isozymes involved using Vivid® CYP450 screening kits and CYP450 BACULOSOMES® Plus Reagents. CYP450 BACULOSOMES® Plus Reagents express only one CYP450 enzyme, preventing metabolism by other CYP450s. For CYP2C9, the substrate was BOMF and the positive control inhibitor sulfaphenazole; for CYP3A4, DBOMF was the substrate and ketoconazole the positive control inhibitor; for CYP1A2, the substrate was EOMCC and the positive control inhibitor naphthoflavone; for CYP2D6, the substrate was EOMCC and the positive control inhibitor quinidine. The assays were performed using the excitation and emission wavelengths recommended by the manufacturer. […] The plate was incubated for 10 min at room temperature (25 ± 1 °C) on a plate shaker. Then, 10 μL of Vivid® Substrate was added to each well to start the reaction. […] The assay was done in triplicate. The reading was performed at 1 min intervals for 60 min. Inhibition was calculated as (1 − (X − B/A − B)) × 100%, where X was the average of compound fluorescence, A was the average of solvent control and B was the average of inhibition in the presence of positive inhibitor control. The percent inhibition was calculated relative to a fixed concentration of the positive control. […]

[1] = test system: TNF-α release in Sup-T1 cells; assay: Cellular inflammatory cytokine release assay (TNF-α ELISA); format: cell-based, human; settings: Sup-T1 cells, 5, 10, 50 and 100 μM, versus no-treatment control
Procedure: Cell culture supernatant was collected and used to determine released TNF-α using the Human TNF-alpha DuoSet ELISA kit (DY210, R & D systems, Minneapolis, MN, USA) following the standard manufacturer’s protocol, optimized using recombinant TNF-α. […] The data were analyzed using SigmaPlot 12.2 (Systat Software Inc., San Jose, CA, USA).

COX-2 = target: T3, COX-2 (Homo sapiens, UniProt P35354); assay: COX inhibitor screening assay kit, COX-2; format: biochemical; settings: for COX-2/COX-1 IC50 ratio: COX-2 IC50 divided by COX-1 IC50
T3 construct: purchased Cayman Chemical 560131
T3 sequence (P35354 18-604): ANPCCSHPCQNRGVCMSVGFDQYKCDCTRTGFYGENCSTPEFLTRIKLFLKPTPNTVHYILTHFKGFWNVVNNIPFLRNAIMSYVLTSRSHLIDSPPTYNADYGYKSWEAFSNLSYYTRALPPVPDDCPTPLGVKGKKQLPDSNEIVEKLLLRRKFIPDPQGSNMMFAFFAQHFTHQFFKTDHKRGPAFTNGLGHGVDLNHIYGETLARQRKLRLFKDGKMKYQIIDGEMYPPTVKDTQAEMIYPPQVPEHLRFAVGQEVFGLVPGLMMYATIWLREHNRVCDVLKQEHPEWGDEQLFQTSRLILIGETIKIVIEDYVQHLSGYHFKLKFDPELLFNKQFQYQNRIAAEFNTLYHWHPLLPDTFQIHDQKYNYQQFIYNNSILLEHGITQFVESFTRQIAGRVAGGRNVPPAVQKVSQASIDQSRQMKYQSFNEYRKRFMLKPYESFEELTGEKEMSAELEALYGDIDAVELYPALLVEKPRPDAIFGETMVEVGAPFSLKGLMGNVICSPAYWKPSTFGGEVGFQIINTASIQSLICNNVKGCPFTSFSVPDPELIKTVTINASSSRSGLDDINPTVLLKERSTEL

COX-1 = target: T4, COX-1 (Ovis aries, UniProt P05979); assay: COX inhibitor screening assay kit, COX-1; format: biochemical; settings: mean ± SD
T4 construct: purchased Cayman Chemical 560131
T4 sequence (P05979 25-600): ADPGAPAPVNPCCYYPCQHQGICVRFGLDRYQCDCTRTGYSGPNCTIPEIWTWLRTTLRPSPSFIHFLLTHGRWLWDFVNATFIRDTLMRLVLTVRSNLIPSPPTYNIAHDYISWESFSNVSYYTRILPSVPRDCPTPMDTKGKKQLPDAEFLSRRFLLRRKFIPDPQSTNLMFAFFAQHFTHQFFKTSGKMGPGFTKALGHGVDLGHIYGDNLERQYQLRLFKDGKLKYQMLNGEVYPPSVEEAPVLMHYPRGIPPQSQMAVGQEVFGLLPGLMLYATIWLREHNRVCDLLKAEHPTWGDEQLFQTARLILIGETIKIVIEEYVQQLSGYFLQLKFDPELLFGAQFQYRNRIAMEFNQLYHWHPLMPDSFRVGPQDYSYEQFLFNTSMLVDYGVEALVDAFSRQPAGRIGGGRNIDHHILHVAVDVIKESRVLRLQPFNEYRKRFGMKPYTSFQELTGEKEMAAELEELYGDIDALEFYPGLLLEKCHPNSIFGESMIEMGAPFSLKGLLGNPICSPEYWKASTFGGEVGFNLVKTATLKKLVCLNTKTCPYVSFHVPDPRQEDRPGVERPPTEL
Procedure: The assay was performed in quadruplet using a COX Inhibitor Screening Assay Kit from Cayman Chemical (Cat. No. 560131) according to the manufacturer’s instructions.

PCAF = target: T5, PCAF (Homo sapiens, UniProt Q92831); assay: PCAF inhibitor screening assay kit (fluorescence); format: biochemical; settings: for IC50: mean ± SD
T5 construct: purchased Cayman 10006515
T5 sequence (Q92831 492-658 limits assumed): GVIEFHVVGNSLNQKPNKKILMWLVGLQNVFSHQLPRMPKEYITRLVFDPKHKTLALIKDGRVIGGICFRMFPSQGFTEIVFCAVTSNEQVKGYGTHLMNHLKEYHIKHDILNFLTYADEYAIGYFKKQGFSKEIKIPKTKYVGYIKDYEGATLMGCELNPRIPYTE
Procedure: Curcuminoids were tested for direct HDAC1 and PCAF inhibitory activity using the fluorescent-based HDAC1 or PCAF inhibitor screening assay kit ((HDAC1) 10011564, (PCAF) 10006515, Cayman, Ann Arbor, MI, USA) according to manufacturer’s instructions.
(§2) Data for the PCAF and HDAC1 inhibition and viability assays were used to derive percent changes based on no treatment controls. Each of three data sets were then fit to a 4-parameter logistic regression using SigmaPlot 12.2 to derive IC50 values, which were then used to determine the mean and SD.

CYP2D6 = CYP2D6 (Homo sapiens, UniProt P10635); assay: Vivid CYP450 screening kit, CYP2D6; settings: 0.01-100 μM
CYP2D6, sequence (P10635 whole entry): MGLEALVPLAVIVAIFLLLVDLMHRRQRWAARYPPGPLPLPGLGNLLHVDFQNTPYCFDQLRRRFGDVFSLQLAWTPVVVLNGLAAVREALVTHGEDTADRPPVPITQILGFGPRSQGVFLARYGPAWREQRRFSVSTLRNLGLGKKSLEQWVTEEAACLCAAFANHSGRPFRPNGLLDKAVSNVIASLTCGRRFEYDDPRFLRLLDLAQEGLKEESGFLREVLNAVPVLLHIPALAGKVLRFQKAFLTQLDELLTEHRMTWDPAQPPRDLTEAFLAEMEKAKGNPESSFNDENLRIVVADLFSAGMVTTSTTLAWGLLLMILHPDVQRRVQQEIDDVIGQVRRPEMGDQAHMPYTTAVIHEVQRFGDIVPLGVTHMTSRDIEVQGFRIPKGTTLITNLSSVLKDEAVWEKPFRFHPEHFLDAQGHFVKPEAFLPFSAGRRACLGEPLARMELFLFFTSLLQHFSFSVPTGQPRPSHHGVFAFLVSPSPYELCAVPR
Procedure: as §1

[2] = target: T6, 15-lipoxygenase derived from soybean (Glycine max, UniProt P08170); assay: Lipoxygenase inhibitor screening assay kit; settings: for lipoxygenase inhibition (in words): 1, 10 and 250 μg/mL tested, versus control; for lowest concentration inhibiting lipoxygenase: soybean 15-lipoxygenase, linoleic acid substrate
T6 sequence (P08170 1-839): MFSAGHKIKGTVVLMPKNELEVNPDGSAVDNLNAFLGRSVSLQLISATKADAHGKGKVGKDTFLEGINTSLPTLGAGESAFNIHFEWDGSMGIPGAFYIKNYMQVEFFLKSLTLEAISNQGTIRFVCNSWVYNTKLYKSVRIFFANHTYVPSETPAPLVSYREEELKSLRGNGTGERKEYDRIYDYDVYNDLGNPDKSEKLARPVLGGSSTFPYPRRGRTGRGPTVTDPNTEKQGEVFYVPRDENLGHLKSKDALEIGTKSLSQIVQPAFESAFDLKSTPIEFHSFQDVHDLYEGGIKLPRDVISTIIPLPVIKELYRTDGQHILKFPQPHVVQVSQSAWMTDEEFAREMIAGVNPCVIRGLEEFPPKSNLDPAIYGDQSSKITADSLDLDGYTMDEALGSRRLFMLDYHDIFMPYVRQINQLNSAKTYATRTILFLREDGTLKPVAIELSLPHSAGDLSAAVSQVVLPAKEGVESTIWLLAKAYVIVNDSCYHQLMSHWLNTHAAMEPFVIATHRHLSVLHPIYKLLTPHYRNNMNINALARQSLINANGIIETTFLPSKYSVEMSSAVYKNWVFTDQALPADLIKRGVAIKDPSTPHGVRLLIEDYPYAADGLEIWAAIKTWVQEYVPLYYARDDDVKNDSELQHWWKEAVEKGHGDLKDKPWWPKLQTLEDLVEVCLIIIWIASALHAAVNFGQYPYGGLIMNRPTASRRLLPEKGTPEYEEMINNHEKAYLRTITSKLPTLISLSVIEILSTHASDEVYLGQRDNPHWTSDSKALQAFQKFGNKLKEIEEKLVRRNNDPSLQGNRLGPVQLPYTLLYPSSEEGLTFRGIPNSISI

HDAC1 = target: T7, HDAC1 (Homo sapiens, UniProt Q13547); assay: HDAC1 inhibitor screening assay kit (fluorescence); format: biochemical
T7 construct: purchased Cayman 10011564
T7 sequence (Q13547 whole entry): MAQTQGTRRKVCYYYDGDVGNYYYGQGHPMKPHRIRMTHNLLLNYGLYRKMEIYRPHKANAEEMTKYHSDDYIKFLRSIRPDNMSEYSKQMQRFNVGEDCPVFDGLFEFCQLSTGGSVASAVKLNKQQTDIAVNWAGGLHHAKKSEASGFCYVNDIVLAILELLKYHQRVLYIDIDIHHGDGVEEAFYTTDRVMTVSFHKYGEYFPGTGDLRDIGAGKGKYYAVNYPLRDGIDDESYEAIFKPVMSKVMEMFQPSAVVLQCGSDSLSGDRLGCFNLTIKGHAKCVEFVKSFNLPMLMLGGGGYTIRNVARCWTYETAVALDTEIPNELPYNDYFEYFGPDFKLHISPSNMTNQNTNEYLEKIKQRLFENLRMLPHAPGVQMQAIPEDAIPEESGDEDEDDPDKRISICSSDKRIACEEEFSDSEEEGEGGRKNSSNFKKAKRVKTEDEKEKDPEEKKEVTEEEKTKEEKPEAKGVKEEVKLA

CYP3A4 = CYP3A4 (Homo sapiens, UniProt P08684); assay: Vivid CYP450 screening kit, CYP3A4; settings: 0.01-100 μM, relative to ketoconazole; to a lesser extent than CYP2C9
CYP3A4, sequence (P08684 whole entry): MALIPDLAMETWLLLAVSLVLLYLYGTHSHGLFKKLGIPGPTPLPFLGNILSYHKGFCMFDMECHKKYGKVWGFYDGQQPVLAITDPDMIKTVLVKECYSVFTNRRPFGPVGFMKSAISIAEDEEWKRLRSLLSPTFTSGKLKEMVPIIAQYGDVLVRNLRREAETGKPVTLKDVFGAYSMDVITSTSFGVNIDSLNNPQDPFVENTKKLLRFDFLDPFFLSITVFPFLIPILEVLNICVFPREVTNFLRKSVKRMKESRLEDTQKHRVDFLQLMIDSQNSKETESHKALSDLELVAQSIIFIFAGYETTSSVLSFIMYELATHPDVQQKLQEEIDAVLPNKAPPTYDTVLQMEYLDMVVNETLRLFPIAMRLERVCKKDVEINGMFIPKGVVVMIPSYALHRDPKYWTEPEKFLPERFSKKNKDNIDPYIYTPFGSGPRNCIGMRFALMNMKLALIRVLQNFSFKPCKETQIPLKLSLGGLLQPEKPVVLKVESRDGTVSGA
Procedure: as §1

[3] = Total antioxidant capacity assay kit (ABTS, Trolox equivalents); settings: with respect to Trolox
Sup-T1 cells = assay: Cellular growth inhibition assay (MTS); format: cell-based; settings: for IC50: Homo sapiens
Procedure: The CellTiter 96® AQueous One Solution Cell Proliferation Assay (MTS, Promega, Madison, WI, USA) was used to measure proliferation inhibition of cultured cells. Briefly, Sup-T1 cells were cultured in RPMI 1640 supplemented with 10% FBS and 1% penicillin/streptomycin at 37 °C and 5% CO2. […] The MTS reagent was added and incubated for 4 h. […] Sup-T1 cells were used in this study because curcuminoids are thought in part to work via an HDAC inhibitor mechanism and as some HDACs are approved for some T-cell lymphomas, we used Sup-T1 cells because they are a T-cell lymphoma cell line that is established. To the best of our knowledge no other study has measured the effects of THC on Sup-T1 cells.
as §2

[4] = Pharmacokinetic study of THC after oral gavage, serum and urine by UHPLC-MS/MS; settings: rat, 500 mg/kg oral
[5] = SUP-T1, read-out: Viability IC50

Row | SMILES | CYP2C9 inhibition (in words) (CYP2C9) | CYP1A2 inhibition (in words) (CYP1A2) | change in TNF-α concentration (in words) [1] | COX-2/COX-1 IC50 ratio (COX-2) | IC50 (COX-1) [µM] | IC50 (PCAF) [µM] | CYP2D6 inhibition (in words) (CYP2D6) | lipoxygenase inhibition (in words) [2] | CYP3A4 inhibition (in words) (CYP3A4) | concentration of greatest antioxidant effect [3] [µM] | lowest concentration inhibiting lipoxygenase [2] [µM] | IC50 (Sup-T1 cells; [5]) [µM] | other results
1 | COc1cc(/C=C/C(=O)COC(=O)/C=C/c2ccc(O)c(OC)c2)ccc1O [Calebin-A, calebin-A] | dose-dependent inhibition | did not show a consistent dose-response inhibition | no dose-response change | around 1 | 1070 ± 490 | 200 ± 31 | did not show a consistent dose-response inhibition | did not show any activity | dose-dependent inhibition | 100 |  |  | IC50 (COX-2; mean ± SD, read-out: COX-2 IC50): 784 ± 2200 µM; fold less potent than curcumin, PCAF inhibition (PCAF; ratio of PCAF IC50): 6 fold; lipoxygenase inhibition (in words) ([2]; listed as calebin-A): no such inhibitory activity; IC50 (HDAC1; mean ± SD): 61.3 ± 11 µM; IC50 (Sup-T1 cells; Sup-T1 growth inhibition, MTS, mean ± SD, read-out: Viability IC50): 26.2 ± 17 µM
2 | COc1cc(CCC(=O)CC(=O)CCc2ccc(O)c(OC)c2)ccc1O [THC, tetrahydrocurcumin] | dose-dependent inhibition | did not show a consistent dose-response inhibition | no dose-response change | around 1 | 918 ± 1300 |  | did not show a consistent dose-response inhibition | inhibited soybean 1,5-lipoxygenase at all doses tested; also recorded: potent lipoxygenase inhibition | dose-dependent inhibition | 100 | ≤ 1 | 82 ± 116 | IC50 (COX-2): 1350 ± 3640 µM; PCAF inhibition (in words) (PCAF; 0.1-250 μg/mL): no inhibitory activity; time of peak serum THC concentration [4]: 1 h; serum THC maxima of the two redistribution phases ([4]; at 6 and 24 h): about 1 μg/mL; maximum rate of urinary excretion ([4]; at 2 h): under 3 μg/h; total amount of THC excreted unchanged in urine ([4]; at 24 h): up to 8 μg; serum THC concentration found up to 20 h later ([4]; up to 20 h after the peak): greater than 1 μg/mL; HDAC1 inhibition (in words) (HDAC1; 0.1-250 μg/mL): no inhibitory activity; maximal growth inhibition (Sup-T1 cells; Sup-T1 cells, up to 100 μM): ≤ 40%
3 | COc1cc(/C=C/C(=O)CC(=O)/C=C/c2ccc(O)c(OC)c2)ccc1O [Curcumin, curcumin] |  |  | slight decrease |  | 3390 ± 8980 | 33.1 ± 2.8 |  | inhibited soybean 1,5-lipoxygenase at all doses tested |  |  | ≤ 1 | 19 ± 11 | 
